The values that follow come from patent publication US9309284B2 (priority 2012, dated 2016).

In data set [1] the target is NV 3CL protease (Norovirus, UniProt Q83883). As to the kind of experiment: biochemical. On the set-up: species or system norovirus strain Norwalk.
For data set [2], the system named is NV in replicon-harboring cells. As to the kind of experiment: cell-based norovirus replicon system (NV replicon-harboring cells, HG23). The note with it: Norwalk virus, α-hydroxyphosphonates, mixtures of epimers. A general note: In antiviral work, replicon cells carry a viral genome segment that copies itself.
The test system of data set [3] is cells. As to the kind of experiment: cell cytotoxicity (microscopy and CytoTox 96 assay). It counts as cell-based. The source says: Cell Cytotoxicity. The nonspecific cytotoxic effects of each compound on cells were monitored by observation under a microscopy and CytoTox 96 Non-radioactive cytotoxicity assay (Promega, Madison, Wis.).
The target in data set [4] is EV71 3C protease (Human enterovirus 71, UniProt Q66478). Briefly: biochemical.
Chain of EV71 3C protease (Q66478 1549-1731 limits assumed): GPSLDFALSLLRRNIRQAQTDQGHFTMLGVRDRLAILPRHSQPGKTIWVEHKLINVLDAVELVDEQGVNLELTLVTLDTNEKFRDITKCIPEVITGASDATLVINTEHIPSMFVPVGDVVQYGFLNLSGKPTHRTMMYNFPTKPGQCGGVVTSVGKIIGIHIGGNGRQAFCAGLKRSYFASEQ
Data set [5] addresses SARS-CoV 3CL protease (Severe acute respiratory syndrome coronavirus, UniProt P0C6X7). Briefly: biochemical.

Chain of NV 3CL protease (Q83883 1101-1281 limits assumed): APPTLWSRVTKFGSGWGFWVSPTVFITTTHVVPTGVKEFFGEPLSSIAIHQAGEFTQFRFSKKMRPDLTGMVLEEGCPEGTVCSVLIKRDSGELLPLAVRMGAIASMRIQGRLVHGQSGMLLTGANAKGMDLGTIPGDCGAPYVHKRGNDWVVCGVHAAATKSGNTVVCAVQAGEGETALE

Regarding `O=C(N[C@@H](CC1CCCCC1)C(=O)N[C@@H](CC1CCNC1=O)C(O)P(=O)(OCC(F)(F)F)OCC(F)(F)F)OCc1ccccc1` (mixture of isomers) [Compound 7g], the IC50 (commonly the point on the concentration scale where inhibition reaches its midpoint) in data set [1] was above 50 µM. In data set [2], the EC50 (usually the concentration needed to bring the measured effect to its halfway point) was 0.25 µM.
Take `O=CC(CC1CCNC1=O)NC(=O)C(CC1CCCCC1)N1C(=O)CCC(NC(=O)OCc2ccccc2)C1=O` (centres unmarked) [Compound 5, Benzyl(1-(3-cyclohexyl-1-oxo-1-((1-oxo-3-(2-oxopyrrolidin-3-yl)propan-2-yl)amino)propan-2-yl)-2,6-dioxopperidin-3-yl)carbamate]: in data set [3], the “toxicity to cells (no toxicity up to)” value is above 150 µM.
In the case of `O=C(N[C@@H](CC1CCCCC1)C(=O)N[C@@H](CC1CCNC1=O)C(O)P(=O)(OCc1ccccc1)OCc1ccccc1)OCc1ccccc1` (mixture of isomers) [Compound 7h], in data set [1], the half-inhibitory concentration (IC50) was above 50 µM. Besides, in data set [2], the EC50 turned out to be 0.6 µM.
Compound `COP(=O)(OC)C(O)[C@H](CC1CCNC1=O)NC(=O)[C@H](CC1CCCCC1)NC(=O)OCc1ccccc1` (mixture of isomers) [Compound 7e] came in with a half-maximal inhibitory concentration (IC50) in data set [1] above 50 µM. The EC50 in data set [2] is 2.8 µM.
In data set [1], `CC(C)C[C@H](NC(=O)OCc1ccccc1)C(=O)N[C@@H](CC1CCNC1=O)C(O)P(=O)(O)O` (mixture of isomers) [Compound 7c] gave a half-inhibitory concentration (IC50) above 50 µM. In addition, in data set [2], the 50% effective concentration (EC50) came to 0.8 µM.
For `CCOP(=O)(OCC)C(O)[C@H](CC1CCNC1=O)NC(=O)[C@H](CC1CCCCC1)NC(=O)OCc1ccccc1` (mixture of isomers) [Compound 7d], in that order: above 50 µM and 0.25 µM.
For `COP(=O)(OC)C(O)[C@H](CC1CCNC1=O)NC(=O)[C@H](CC(C)C)NC(=O)OCc1ccccc1` (mixture of isomers) [Compound 7b], in that order: above 50 µM and 3.5 µM.
As to `CC(C)C[C@@H]1NC(=O)[C@@H](NC(=O)OCc2ccccc2)Cc2cn(nn2)CCCNC(=O)CC[C@@H](C=O)NC1=O` [Compound 13, Benzyl(9-formyl-12-isobutyl-6,11,14-trioxo-1,5,10,13,18,19-hexaazabicyclo[15.2.1]icosa-17(20),18-dien-15-yl)carbamate], the results for the concentration for half-maximal inhibition (IC50) in data set [1], in data set [4] and in data set [5] were 5.1 µM, 1.8 µM and 15.5 µM, respectively.
`CCOP(=O)(OCC)C(O)[C@H](CC1CCNC1=O)NC(=O)[C@H](CC(C)C)NC(=O)OCc1ccccc1` (mixture of isomers) [Compound 7a] came in with a half-inhibitory concentration (IC50) in data set [1] above 50 µM. For the same compound, in data set [2], the EC50 turned out to be 1.1 µM.
On the same counts, the results for `CCCCOP(=O)(OCCCC)C(O)[C@H](CC1CCNC1=O)NC(=O)[C@H](CC1CCCCC1)NC(=O)OCc1ccccc1` (mixture of isomers) [Compound 7f] are above 50 µM and 0.5 µM.
